The record followed here is patent US20170369470A1, “Cyclic Compounds and Uses Thereof” (Karyopharm Therapeutics Inc., priority 2014, published 2017).

A word on the pIC50: it is −log10 of the IC50, conventionally taken in molar units.

pIC50: −log10 of the molar value.

Format in all cases: cell-based
The test system of one assay is Z138 cells. In words: MTT cell proliferation assay, Z138 cells. The note with it: Homo sapiens, Z-138; Z138 cells (mantle cell lymphoma line); incubation approximately 64-72 hours. The procedure:
(§1) The MTT cell proliferation assay was used to study the cytotoxic properties of the compounds. The assay was performed according to the method described by Roche Molecular Biochemicals, with minor modifications. The assay is based on the cleavage of the tetrazolium salt, MTT, in the presence of an electron-coupling reagent. The water-insoluble formazan salt produced must be solubilized in an additional step. Cells grown in a 96-well tissue culture plate were incubated with the MTT solution for approximately 4 hours. After this incubation period, a water-insoluble formazan dye formed. After solubilization, the formazan dye was quantitated using a scanning multi-well spectrophotometer (ELISA reader). […] The cells were seeded at 5,000-10,000 cells in each well of 96-well plate in 100 μL of fresh culture medium and were allowed to attach overnight. The stock solutions of the compounds were diluted in 100 μL cell culture medium to obtain eight concentrations of each test compound, ranging from 1 nM to 30 μM. […] All optical densities were measured at 490 nm using a Vmax Kinetic Microplate Reader (Molecular Devices). In most cases, the assay was performed in duplicate and the results were presented as a mean percent inhibition to the negative control±SE. The following formula was used to calculate the percent of inhibition: Inhibition (%)=(1−(ODo/OD))×100.
(§2) The compounds were tested against MS751, Z138 and 3T3 cells. The MS751 cell line is derived from a metastasis to lymph node of human cervix from a patient diagnosed with squameous cell carcinoma of the cervix. The Z138 cell line is a mature B-cell acute lymphoblastic leukemia cell line derived from a patient with chronic lumphocytic leukemia. 3T3 cells are standard fibroblast cells; they were originally isolated from Swiss mouse embryo tissue.
On the technique in general: Tetrazolium dyes change colour on reduction, which living cells bring about.

The next assay deals with MS751 cells. In words: MTT cell proliferation assay, MS751 cells. The note with it: MS751 cells (human cervix squamous cell carcinoma metastasis); incubation approximately 64-72 hours; read-out: MTT Assay IC50 MS 751. As for the experimental part: as §1, §2
The subject of the next assay is 3T3 cells. In words: MTT cell proliferation assay, 3T3 cells. The note with it: NIH3T3; 3T3 fibroblast cells (Swiss mouse embryo); incubation approximately 64-72 hours. As for the experimental part:
as §1, §2

As for `Nc1ccc(/C=C/C(=O)NCc2cc3cc(-c4ccc(C(=O)N5CC6(C5)CC(F)(F)C6)cc4)cc(C(F)(F)F)c3s2)cn1` [compound 527, (E)-3-(6-aminopyridin-3-yl)-N-((5-(4-(6,6-difluoro-2-azaspiro[3.3]heptane-2-carbonyl)phenyl)-7-(trifluoromethyl)benzo[b]thiophen-2-yl)methyl)acrylamide], the pIC50 was 5.30 to 6.00 in the assay with Z138 cells, 5.30 to 6.00 in the assay with MS751 cells and less than 5.00 in the assay on 3T3 cells.

With `Nc1ccc(/C=C/C(=O)NCc2cc3cc(-c4ccc(C(=O)N5CCC(F)CC5)cn4)cc(C(F)(F)F)c3s2)cn1` [compound 517, (E)-3-(6-aminopyridin-3-yl)-N-((5-(5-(4-fluoropiperidine-1-carbonyl)pyridin-2-yl)-7-(trifluoromethyl)benzo[b]thiophen-2-yl)methyl)acrylamide], the pIC50 was 5.30 to 6.00 in the assay on Z138 cells, 5.30 to 6.00 with MS751 cells and less than 5.00 with 3T3 cells.

For the compound `Nc1ccc(/C=C/C(=O)NCc2cc3cc(-c4ccc(C(=O)N5CCC(O)(C(F)(F)F)C5)cn4)cc(C(F)(F)F)c3s2)cn1` (stereo not drawn) [compound 509, (E)-3-(6-aminopyridin-3-yl)-N-((5-(5-(3-hydroxy-3-(trifluoromethyl)pyrrolidine-1-carbonyl)pyridin-2-yl)-7-(trifluoromethyl)benzo[b]thiophen-2-yl)methyl)acrylamide], the values for the pIC50 in the assay on Z138 cells, in the assay with MS751 cells and with 3T3 cells were more than 6.00, 5.30 to 6.00 and less than 5.00, respectively.

As for `Nc1ccc(/C=C/C(=O)NCc2cc3cc(-c4ccc(C(=O)N5CCC(F)CC5)cc4)cc(C(F)(F)F)c3s2)cn1` [compound 529, (E)-3-(6-aminopyridin-3-yl)-N-((5-(4-(4-fluoropiperidine-1-carbonyl)phenyl)-7-(trifluoromethyl)benzo[b]thiophen-2-yl)methyl)acrylamide], the pIC50 in the assay on Z138 cells, in the assay on MS751 cells and in the assay on 3T3 cells was less than 5.00 throughout.

As to `Nc1ccc(/C=C/C(=O)NCc2nc3cc(-c4ccc(C(=O)N5CCC(F)(F)CC5)cn4)cc(C(F)(F)F)c3[nH]2)cn1` [compound 530, (E)-3-(6-aminopyridin-3-yl)-N-((5-(5-(4,4-difluoropiperidine-1-carbonyl)pyridin-2-yl)-7-(trifluoromethyl)-1H-benzo[d]imidazol-2-yl)methyl)acrylamide], the negative-log IC50 (pIC50) with Z138 cells, in the assay on MS751 cells and in the assay with 3T3 cells was less than 5.00 throughout.

As for `Nc1ccc(/C=C/C(=O)NCc2nc3cc(-c4ccc(C(=O)N5CCC(F)(F)CC5)cn4)cc(C(F)(F)F)c3s2)cn1` [compound 532, (E)-3-(6-aminopyridin-3-yl)-N-((5-(5-(4,4-difluoropiperidine-1-carbonyl)pyridin-2-yl)-7-(trifluoromethyl)benzo[d]thiazol-2-yl)methyl)acrylamide], the pIC50 in the assay with Z138 cells is more than 6.00; in the assay with MS751 cells, more than 6.00; with 3T3 cells, less than 5.00.

In the case of `CC1(C)CN(C(=O)c2ccc(-c3cc(C(F)(F)F)c4sc(CNC(=O)/C=C/c5ccc(N)nc5)cc4c3)cc2)CCO1` [compound 526, (E)-3-(6-aminopyridin-3-yl)-N-((5-(4-(2,2-dimethylmorpholine-4-carbonyl)phenyl)-7-(trifluoromethyl)benzo[b]thiophen-2-yl)methyl)acrylamide], the pIC50 is more than 6.00 in the assay on Z138 cells, 5.30 to 6.00 in the assay on MS751 cells and less than 5.00 in the assay on 3T3 cells.

Take `Nc1ccc(/C=C/C(=O)NCCc2cc3cc(-c4ccc(C(=O)N5CCC(F)(F)CC5)cn4)cc(C(F)(F)F)c3s2)cn1` [compound 534, (E)-3-(6-aminopyridin-3-yl)-N-(2-(5-(5-(4,4-difluoropiperidine-1-carbonyl)pyridin-2-yl)-7-(trifluoromethyl)benzo[b]thiophen-2-yl)ethyl)acrylamide]: the pIC50 in the assay on Z138 cells, in the assay with MS751 cells and in the assay with 3T3 cells was more than 6.00 in each case.

As to `Nc1ccc(/C=C/C(=O)NCc2cc3cc(-c4ccc(C(=S)N5CCC(F)(F)CC5)cn4)cc(C(F)(F)F)c3s2)cn1` [compound 504, (E)-3-(6-aminopyridin-3-yl)-N-((5-(5-(4,4-difluoropiperidine-1-carbonothioyl)pyridin-2-yl)-7-(trifluoromethyl)benzo[b]thiophen-2-yl)methyl)acrylamide], the pIC50 with Z138 cells was more than 6.00; in the assay on MS751 cells, more than 6.00; with 3T3 cells it was less than 5.00.

Regarding `CC1(O)CCN(C(=O)c2ccc(-c3cc(C(F)(F)F)c4sc(CNC(=O)/C=C/c5ccc(N)nc5)cc4c3)nc2)CC1` [compound 516, (E)-3-(6-aminopyridin-3-yl)-N-((5-(5-(4-hydroxy-4-methylpiperidine-1-carbonyl)pyridin-2-yl)-7-(trifluoromethyl)benzo[b]thiophen-2-yl)methyl)acrylamide], the pIC50 in the assay with Z138 cells is more than 6.00; with MS751 cells it was 5.30 to 6.00; with 3T3 cells, less than 5.00.

`CC1(C)COCCN1C(=O)c1ccc(-c2cc(C(F)(F)F)c3sc(CNC(=O)/C=C/c4ccc(N)nc4)cc3c2)nc1` [compound 508, (E)-3-(6-aminopyridin-3-yl)-N-((5-(5-(3,3-dimethylmorpholine-4-carbonyl)pyridin-2-yl)-7-(trifluoromethyl)benzo[b]thiophen-2-yl)methyl)acrylamide]: the results for the pIC50 with Z138 cells, in the assay with MS751 cells and with 3T3 cells were 5.30 to 6.00, 5.30 to 6.00 and less than 5.00, respectively.

Regarding `Nc1ccc(/C=C/C(=O)NCc2cc3cc(-c4ccc(C(=O)N5CC(F)(F)C5)cc4)cc(C(F)(F)F)c3s2)cn1` [compound 524, (E)-3-(6-aminopyridin-3-yl)-N-((5-(4-(3,3-difluoroazetidine-1-carbonyl)phenyl)-7-(trifluoromethyl)benzo[b]thiophen-2-yl)methyl)acrylamide], the pIC50 with Z138 cells, in the assay on MS751 cells and in the assay with 3T3 cells was less than 5.00 throughout.

For the compound `Nc1ccc(/C=C/C(=O)NCc2cc3cc(-c4ccc(C(=O)N5CCC(F)(F)C5)cc4)cc(C(F)(F)F)c3s2)cn1` [compound 520, (E)-3-(6-aminopyridin-3-yl)-N-((5-(4-(3,3-difluoropyrrolidine-1-carbonyl)phenyl)-7-(trifluoromethyl)benzo[b]thiophen-2-yl)methyl)acrylamide], the pIC50 with Z138 cells was 5.30 to 6.00; with MS751 cells, 5.00 to 5.30; in the assay on 3T3 cells, less than 5.00.

As to `Nc1ccc(/C=C/C(=O)NCc2cc3cc(-c4ccc(C(=O)N5CC6(COC6)C5)cn4)cc(C(F)(F)F)c3s2)cn1` [compound 511, (E)-N-((5-(5-(2-oxa-6-azaspiro[3.3]heptane-6-carbonyl)pyridin-2-yl)-7-(trifluoromethyl)benzo[b]thiophen-2-yl)methyl)-3-(6-aminopyridin-3-yl)acrylamide], the pIC50 with Z138 cells is more than 6.00; with MS751 cells, more than 6.00; in the assay with 3T3 cells, less than 5.00.

With `Nc1ccc(/C=C/C(=O)NCc2cc3cc(-c4ccc(C(=O)N5CC(F)(F)C5)cn4)cc(C(F)(F)F)c3s2)cn1` [compound 512, (E)-3-(6-aminopyridin-3-yl)-N-((5-(5-(3,3-difluoroazetidine-1-carbonyl)pyridin-2-yl)-7-(trifluoromethyl)benzo[b]thiophen-2-yl)methyl)acrylamide], the pIC50 in the assay on Z138 cells is more than 6.00; in the assay with MS751 cells it was 5.30 to 6.00; in the assay with 3T3 cells it was 5.00 to 5.30.

For `Cn1c(CNC(=O)/C=C/c2ccc(N)nc2)cc2cc(-c3ccc(C(=O)N4CCC(F)(F)CC4)cn3)cc(C(F)(F)F)c21` [compound 502, (E)-3-(6-aminopyridin-3-yl)-N-((5-(5-(4,4-difluoropiperidine-1-carbonyl)pyridin-2-yl)-1-methyl-7-(trifluoromethyl)-1H-indol-2-yl)methyl)acrylamide], the pIC50 with Z138 cells, in the assay with MS751 cells and with 3T3 cells was less than 5.00 each time.

Consider `Nc1ccc(/C=C/C(=O)NCc2nc3cc(-c4ccc(C(=O)N5CCC(F)(F)CC5)cc4)cc(C(F)(F)F)c3s2)cn1` [compound 533, (E)-3-(6-aminopyridin-3-yl)-N-((5-(4-(4,4-difluoropiperidine-1-carbonyl)phenyl)-7-(trifluoromethyl)benzo[d]thiazol-2-yl)methyl)acrylamide], for which the pIC50 in the assay on Z138 cells was more than 6.00; with MS751 cells, more than 6.00; in the assay on 3T3 cells it was less than 5.00.

Consider `CC1(F)CCN(C(=O)c2ccc(-c3cc(C(F)(F)F)c4sc(CNC(=O)/C=C/c5ccc(N)nc5)cc4c3)cc2)C1` (stereo not drawn) [compound 522, (E)-3-(6-aminopyridin-3-yl)-N-((5-(4-(3-fluoro-3-methylpyrrolidine-1-carbonyl)phenyl)-7-(trifluoromethyl)benzo[b]thiophen-2-yl)methyl)acrylamide], for which the pIC50 was 5.30 to 6.00 in the assay with Z138 cells, 5.00 to 5.30 with MS751 cells and less than 5.00 with 3T3 cells.
